Common to all, as to assay type: cell-based
Test [1] addresses T1, Exportin-1 (Homo sapiens, UniProt O14980). Put plainly: Inhibition of CRM1-mediated hemagglutininin-tagged HIV1 Rev protein nuclear export in human HeLa cells assessed as nucleus localization after 12 hrs by indirect fluorescent antibody technique.
The target in test [2] is T1, Exportin-1. Put plainly: Inhibition of CRM1-mediated hemagglutininin-tagged HIV1 Rev protein nuclear export in human HeLa cells assessed as nucleus localization at 25 uM after 12 hrs by indirect fluorescent antibody technique.
Test [3] addresses T1, Exportin-1. Put plainly: Inhibition of CRM1-mediated hemagglutininin-tagged HIV1 Rev protein nuclear export in human HeLa cells assessed as nuclear localization at 5 uM after 12 hrs by indirect fluorescent antibody technique.

Calls of active or inactive are those of the source. No cut-off for these calls is given here. Some results are limits rather than exact numbers.

T1 sequence (O14980 whole entry): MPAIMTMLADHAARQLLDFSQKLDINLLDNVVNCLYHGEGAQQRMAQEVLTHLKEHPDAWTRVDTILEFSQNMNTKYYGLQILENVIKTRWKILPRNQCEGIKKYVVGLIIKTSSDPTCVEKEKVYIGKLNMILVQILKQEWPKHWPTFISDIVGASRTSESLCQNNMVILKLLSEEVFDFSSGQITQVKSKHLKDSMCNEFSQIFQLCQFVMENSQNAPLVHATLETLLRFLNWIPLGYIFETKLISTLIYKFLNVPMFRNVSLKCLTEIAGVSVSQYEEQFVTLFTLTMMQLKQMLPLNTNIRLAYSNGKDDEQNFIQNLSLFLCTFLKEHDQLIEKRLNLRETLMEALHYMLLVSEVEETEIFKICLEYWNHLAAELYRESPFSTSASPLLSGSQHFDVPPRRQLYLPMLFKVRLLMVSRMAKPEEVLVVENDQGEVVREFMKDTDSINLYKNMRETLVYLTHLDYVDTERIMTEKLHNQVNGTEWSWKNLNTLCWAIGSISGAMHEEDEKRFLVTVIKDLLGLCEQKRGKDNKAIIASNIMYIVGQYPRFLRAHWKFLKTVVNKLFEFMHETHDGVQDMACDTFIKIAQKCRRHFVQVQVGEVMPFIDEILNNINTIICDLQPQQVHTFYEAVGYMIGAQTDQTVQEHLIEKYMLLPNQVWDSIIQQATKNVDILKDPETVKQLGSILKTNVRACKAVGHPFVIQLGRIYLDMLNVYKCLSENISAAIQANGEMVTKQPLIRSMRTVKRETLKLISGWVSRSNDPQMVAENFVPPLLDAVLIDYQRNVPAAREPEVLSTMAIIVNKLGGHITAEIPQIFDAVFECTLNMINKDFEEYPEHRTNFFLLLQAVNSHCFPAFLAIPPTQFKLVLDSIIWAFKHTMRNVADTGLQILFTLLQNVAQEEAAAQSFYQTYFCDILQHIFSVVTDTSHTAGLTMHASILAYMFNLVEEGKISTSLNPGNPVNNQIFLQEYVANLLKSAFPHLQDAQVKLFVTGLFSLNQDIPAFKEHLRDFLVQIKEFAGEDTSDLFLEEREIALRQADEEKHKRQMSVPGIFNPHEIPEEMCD

By IC50 is commonly meant the concentration at which inhibition is half-maximal. In the case of `CC(C)=CCc1cccc2ccc(=O)oc12`, the half-maximal inhibitory concentration (IC50) on Exportin-1 [1] was found to be 6.4 µM.

The term inhibition denotes the percentage by which the read-out fell short of the control. In the case of `COc1ccc2c(c1CC=C(C)C)OC(=O)CC2`, on Exportin-1 [2], the inhibition turned out to be 2.6%.

Take `O=c1ccc2ccccc2o1` [COUMARIN]: the IC50 at Exportin-1 [1] is over 25 µM.

In the case of `COc1ccc2ccc(=O)oc2c1` [HERNIARIN], the half-maximal inhibitory concentration (IC50) at Exportin-1 [1] is over 25 µM.

`COc1ccc2ccc(=O)oc2c1CC=C(C)C` [OSTHOLE]: the inhibition entry at Exportin-1 [3] is “Active”. At Exportin-1 [1], the IC50 is 1.6 µM.

The record behind these values is ChEMBL document CHEMBL1158624, “Prenylcoumarin with Rev-export inhibitory activity from Cnidii Monnieris Fructus” (Bioorg Med Chem Lett, 2010).
